This is an account of results in ChEMBL document CHEMBL3400069, “The amide linker in nonpeptide neurotensin receptor ligands plays a key role in calcium signaling at the neurotensin receptor type 2” (Bioorg Med Chem Lett, 2015).

The target of experiment [1] is Neurotensin receptor type 1 (Rattus norvegicus, UniProt P20789). Put plainly: Displacement of [I125]neurotensin from rat NTS1 overexpressed in CHO-k1 cells by competitive binding Assay. Format: cell-based.
Experiment [2] has as its target Neurotensin receptor type 1 (Rattus norvegicus) (UniProt P20789). Description: Antagonist activity at rat NTS1 overexpressed in CHO-k1 cells assessed as blockade of neurotensin-mediated calcium mobilization after 15 mins by FLIPR assay. Format: functional, cell-based.
Experiment [3] concerns the target T1, Neurotensin receptor type 2 (Rattus norvegicus) (UniProt Q63384).
T1 sequence (whole entry): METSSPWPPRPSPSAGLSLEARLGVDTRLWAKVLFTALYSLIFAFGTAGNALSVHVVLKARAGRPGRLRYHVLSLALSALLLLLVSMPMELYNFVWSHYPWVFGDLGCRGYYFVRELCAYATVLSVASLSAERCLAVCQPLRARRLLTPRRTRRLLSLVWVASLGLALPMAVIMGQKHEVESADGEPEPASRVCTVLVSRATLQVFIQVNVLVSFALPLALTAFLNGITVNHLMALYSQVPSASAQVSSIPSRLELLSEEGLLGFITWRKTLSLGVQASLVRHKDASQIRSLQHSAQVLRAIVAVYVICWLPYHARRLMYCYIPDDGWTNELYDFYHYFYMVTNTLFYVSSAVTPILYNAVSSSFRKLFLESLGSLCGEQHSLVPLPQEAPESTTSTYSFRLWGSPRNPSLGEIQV
Put plainly: Agonist activity at rat NTS2 overexpressed in CHO-k1 cells assessed as calcium mobilization by FLIPR assay relative to SR142948a. Format: functional, cell-based. In general terms: Calcium assays in cells follow changes in intracellular calcium, usually with a dye or a luminescent sensor.

In experiment [4] the target is T2, Neurotensin receptor type 2 (Rattus norvegicus, UniProt Q63384).
T2 sequence (Q63384 whole entry): T1 sequence (whole entry)
Put plainly: Agonist activity at rat NTS2 overexpressed in CHO-k1 cells assessed as calcium mobilization by FLIPR assay. Format: functional, cell-based.

Experiment [5] deals with T2, Neurotensin receptor type 2. Description: Displacement of [I125]neurotensin from rat NTS2 overexpressed in CHO-k1 cells by competitive binding Assay. Format: cell-based.

Each structure is given as a SMILES string. The source made the active and inactive calls. The rule behind the calls is not given here.

Sequence of Neurotensin receptor type 1 (P20789 whole entry): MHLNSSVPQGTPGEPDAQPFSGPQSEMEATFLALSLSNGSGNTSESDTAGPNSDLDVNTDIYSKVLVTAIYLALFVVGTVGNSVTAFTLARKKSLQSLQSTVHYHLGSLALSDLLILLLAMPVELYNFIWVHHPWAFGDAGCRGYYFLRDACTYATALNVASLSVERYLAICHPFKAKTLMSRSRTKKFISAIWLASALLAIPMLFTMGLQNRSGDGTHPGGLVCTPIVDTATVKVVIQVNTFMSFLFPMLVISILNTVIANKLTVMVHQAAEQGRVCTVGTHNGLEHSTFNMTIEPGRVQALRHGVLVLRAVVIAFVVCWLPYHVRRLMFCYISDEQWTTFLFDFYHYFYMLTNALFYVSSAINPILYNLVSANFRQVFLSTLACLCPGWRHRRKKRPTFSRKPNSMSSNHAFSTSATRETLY
Sequence of Neurotensin receptor type 1 (Rattus norvegicus) (P20789 whole entry): as above

By Ki is commonly meant the equilibrium dissociation constant of an inhibitor or competing ligand from its target. Read a low Ki as a stronger hold on the target. Compound `COc1cccc(OC)c1-c1cc(C(=O)NC2(C(=O)O)CCCCC2)nn1-c1cccc2ccccc12` returned a Ki in experiment [1] of 1210 nM.

A word on the Emax: it is the size of the effect at its maximum, as opposed to the concentration needed. A word on the EC50: it is the concentration giving half of the maximal effect. Turning to `COc1ccccc1-c1cc(NC(=O)C2(C(=O)O)CCCCC2)nn1-c1ccc(F)cc1`, the Ke result in experiment [2] was “inactive”. Moreover, the Emax in experiment [3] is 13%. In experiment [4] (read-out: EC50), the EC50 is 951 nM. Also, the Ki in experiment [1] was more than 25000 nM; in experiment [5], 6340 nM.

Consider `COc1ccccc1-c1cc(C(=O)NC2(C(=O)O)CCCCC2)nn1-c1ccc(F)cc1`, for which the inhibition constant (Ki) in experiment [1] is more than 25000 nM.

As to `COc1cccc(OC)c1-c1cc(NC(=O)C2(C(=O)O)CCCCC2)nn1-c1ccc(F)cc1`, the Ke result in experiment [2] was “inactive”. In addition, the Emax in experiment [3] amounted to 10%. The EC50 in experiment [4] (read-out: EC50) was found to be 55 nM. Moreover, the results for the Ki in experiment [1] and in experiment [5] were more than 25000 nM and 271 nM, respectively.

Consider `COc1cccc(OC)c1-c1cc(CN[C@H](C(=O)O)C2CCCCC2)nn1-c1ccnc2cc(Cl)ccc12`, for which the EC50 entry in experiment [4] (cho-k1) is “Not Active”. Moreover, the Ki in experiment [1] and in experiment [5] was more than 10000 nM in each case.

Consider `COc1cccc(OC)c1-c1cc(NC(=O)C2(C(=O)O)CCCCC2)nn1-c1ccnc2cc(Cl)ccc12`, for which, in experiment [4] (cho-k1), the concentration for a half-maximal effect (EC50) result is “Not Active”. Moreover, the Ki was 7180 nM in experiment [1] and 140 nM in experiment [5].

The compound `COc1cccc(OC)c1-c1cc(C(=O)NC2(C(=O)O)CCCCC2)nn1-c1ccnc2cc(Cl)ccc12` registered a Ki in experiment [1] of 177 nM.

In the case of `COc1cccc(OC)c1-c1cc(NC(=O)C2(C(=O)O)CCCCC2)nn1-c1cccc2ccccc12`, the half-maximal effective concentration (EC50) result in experiment [4] (cho-k1) is recorded as “Not Active”. Further, the Ki in experiment [1] was determined as 10200 nM; in experiment [5] it was 128 nM.
